Results as given in patent US8921360B2, “Heterobicycle-substituted azolyl benzene fungicides” (priority 2009, dated 2014).

Columns and labels:
Format in all cases: in vivo
[1] = tested on: Erysiphe graminis f. sp. tritici; experiment: Test A: wheat powdery mildew, preventive spray on wheat seedlings; conditions: Blumeria graminis, 192 h, wheat seedlings sprayed to run-off, inoculated next day, rated after 8 days, 100 = 100% disease control, 0 = no control, read-out: Percentage Disease Control Test A
Outline: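 Wheat seedlings sprayed to run-off with compound suspended in acetone/water 50/50 plus 250 ppm Trem 014, at 200 ppm (equivalent to 800 g/ha) or 40 ppm where marked. Inoculated next day with Erysiphe graminis f. sp. tritici spore dust, held 8 days at 20° C. Disease visually rated as % control relative to untreated controls.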

[2] = tested on: Puccinia recondita f sp. tritici; experiment: Test B: wheat leaf rust, preventive spray on wheat seedlings; conditions: Puccinia recondita, 192 h, wheat seedlings sprayed to run-off, inoculated next day, rated after 24 h + 7 days, read-out: Percentage Disease Control Test B
[3] = tested on: Puccinia recondita f. sp. tritici; experiment: Test C: wheat leaf rust, spray the day after inoculation of wheat seedlings; conditions: Puccinia recondita, 120 h, wheat seedlings inoculated, sprayed the following day, rated after 5 days, read-out: Percentage Disease Control Test C;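 also: Curative spray on infected wheat seedlings with visual rating 5 days later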
Outline: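 Wheat seedlings inoculated with P. recondita spores, held 24 h at 20 °C in saturated atmosphere, then sprayed to run-off next day (curative). Test suspension in acetone/water with 250 ppm surfactant, 200 ppm (≈800 g/ha) or 40 ppm. Disease rated visually after 5 days at 20 °C as % control relative to untreated.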

Septoria nodorum = experiment: Test D: wheat glume blotch, preventive spray on wheat seedlings; conditions: Parastagonospora nodorum, 216 h, wheat seedlings sprayed to run-off, inoculated next day, rated after 48 h + 7 days, read-out: Percentage Disease Control Test D
Outline: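 Compounds in acetone/water (50/50) with 250 ppm Trem 014 sprayed to run-off on wheat seedlings at 200 ppm (≈800 g/ha) or 40 ppm where marked. Spore inoculation next day, 48 h saturated atmosphere at 20 °C, then 7 days at 20 °C; visual rating as % disease control versus controls.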

Septoria tritici = experiment: Test E: wheat leaf blotch, preventive spray on wheat seedlings; conditions: Zymoseptoria tritici, 456 h; 200 ppm; wheat seedlings sprayed to run-off, inoculated next day, rated after 48 h + 19 days; read-out: Percentage Disease Control Test E
Outline: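 Wheat seedlings were sprayed to run-off with compound at 200 ppm (≈800 g/ha) or 40 ppm in acetone/water with surfactant. Spores were inoculated the next day, followed by 48 h saturated atmosphere at 24° C, then 19 days at 20° C. Disease control was visually rated 0–100 relative to controls.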

SMILES	pest or weed control at 200 ppm [1] [%]	pest or weed control at 200 ppm [2] [%]	pest or weed control at 200 ppm [3] [%]	pest or weed control at 200 ppm (Septoria nodorum) [%]	pest or weed control at 200 ppm (Septoria tritici) [%]
COC(=O)NCc1cc(-n2ccc(-c3ccc4c(c3)CCCO4)n2)ccc1C [Compound 25, methyl N-[[5-[3-(3,4-dihydro-2H-1-benzopyran-6-yl)-1H-pyrazol-1-yl]-2-methylphenyl]methyl]carbamate]	100	100	100	100	100
COC(=O)NCc1cc(-n2ccc(-c3ccc4c(c3)OCO4)n2)ccc1Cl [Compound 6, methyl N-[[5-[3-(1,3-benzodioxol-5-yl)-1H-pyrazol-1-yl]-2-chlorophenyl]-methyl]carbamate]	100	100	100	100	99
COC(=O)NCc1cc(-c2ccn(-c3ccc4c(c3)C=C(C(=O)O)CO4)n2)ccc1Cl [Compound 24, 6-[3-[4-chloro-3-[[(methoxycarbonyl)amino]methyl]phenyl]-1H-pyrazol-1-yl]-2H-1-benzopyran-3-carboxylic acid]	0	96	0	89	0
COC(=O)NCc1cc(-c2ccn(-c3ccc4c(c3)CC3(CO4)OCCO3)n2)ccc1Cl [Compound 28, methyl N-[[2-chloro-5-(1-spiro[2H-1-benzopyran-3(4H), 2′-[1,3]dioxolan]-6-yl-1H-pyrazol-3-yl)phenyl]methyl]carbamate]	99	100	100	99	93
